# Tests used:
# A. baumannii [1] = test: microbe, parasite or virus in culture; settings: for RO7223280 MIC 80%: read at 80%; for RO7223280 MIC 100%: read at 100%
# Method in brief: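 MIC was taken as the lowest concentration without visible growth, or past which OD600 no longer fell. Testing followed CLSI M07 and M100 broth microdilution, using 0.5 McFarland-derived inocula in CAMHB (LB for A. baylyi isolates).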
# A. baumannii [2] = test: Immunocompetent mouse septicaemia infection model; format: in vivo
# Description: Septicaemia was induced in CD-1 immunocompetent male mice by an intraperitoneal inoculation of a bacterial suspension of the tested A. baumannii isolate at a challenge of approximately 1–2 log[CFU] above the determined median lethal dose (resulting in 10^5 to 10^7 CFU per mouse). […] Mouse survival was followed over 6–7 days. GraphPad Prism 8 was used for graphical presentation of the data. Septicaemia studies with mutant derivative isolates obtained in resistance studies were performed as described above, using a bacterial challenge as determined for the parental isolate.
# [3] = A. baumannii ROB08708, Study LGC308175
# [4] = A. baumannii ROB08709, Study LGC296813
# [5] = A. baumannii ROB08709, Study LGC299544
# [6] = A. baumannii ROB08709, Study LGC308175
# [7] = A. baumannii ROB08710, Study LGC296813
# [8] = A. baumannii ROB08710, Study LGC299544
# [9] = A. baumannii ROB08710, Study LGC308175
compound,measurement,setting,value
CN1C(=O)[C@H](CCCCN)NC(=O)[C@H](CCCN)NCc2cccnc2Sc2cccc(-c3ccc(C(=O)O)cc3)c2CNC(=O)[C@@H]1Cc1c[nH]c2ccccc12 [zosurabalpin],RO7223280 MIC 80%,A. baumannii [1]; [3],0.12 µg/mL
same,RO7223280 MIC 100%,A. baumannii [1]; [3],>64 µg/mL
same,RO7223280 MIC 80%,A. baumannii [1]; [4],0.25 µg/mL
same,RO7223280 MIC 100%,A. baumannii [1]; [4],0.25 µg/mL
same,RO7223280 MIC 80%,A. baumannii [1]; [5],0.25 µg/mL
same,RO7223280 MIC 100%,A. baumannii [1]; [5],>64 µg/mL
same,RO7223280 MIC 80%,A. baumannii [1]; [6],0.25 µg/mL
same,RO7223280 MIC 100%,A. baumannii [1]; [6],>64 µg/mL
same,RO7223280 MIC 80%,A. baumannii [1]; [7],0.25 µg/mL
same,RO7223280 MIC 100%,A. baumannii [1]; [7],>64 µg/mL
same,RO7223280 MIC 80%,A. baumannii [1]; [8],0.25 µg/mL
same,RO7223280 MIC 100%,A. baumannii [1]; [8],>64 µg/mL
same,RO7223280 MIC 80%,A. baumannii [1]; [9],0.25 µg/mL
same,RO7223280 MIC 100%,A. baumannii [1]; [9],>64 µg/mL
same,MIC90,"A. baumannii [1]; Acinetobacter baumannii, 10 MDR isolates, CAMHB, MCPs read at 80% growth inhibition",0.25 µg/mL
same,MIC,"A. baumannii [1]; Acinetobacter baumannii, ACC00445, CAMHB, MCPs read at 80% inhibition",0.12 µg/mL
same,MIC,"A. baumannii [1]; Acinetobacter baumannii, ACC00535, CAMHB, MCPs read at 80% inhibition",0.12 µg/mL
same,MIC,"A. baumannii [1]; Acinetobacter baumannii, ACC01073, CAMHB, MCPs read at 80% inhibition",1 µg/mL
same,MIC,"A. baumannii [1]; Acinetobacter baumannii, ACC01077, CAMHB, MCPs read at 80% inhibition",0.12 µg/mL
same,MIC,"A. baumannii [1]; Acinetobacter baumannii, ACC01085 / AR0307, CAMHB, MCPs read at 80% inhibition",0.5 µg/mL
same,MIC,"A. baumannii [1]; Acinetobacter baumannii, ATCC17978, ATCC 17978, CAMHB, MCPs read at 80% inhibition",≤ 0.06 µg/mL
same,MIC,"A. baumannii [1]; Acinetobacter baumannii, ATCC17978, ATCC 17978, CAMHB, one replicate, MCPs read at 80% growth inhibition",≤ 0.06 µg/mL
same,MIC,"A. baumannii [1]; Acinetobacter baumannii, ATCC19606, ATCC 19606, CAMHB, MCPs read at 80% growth inhibition",0.25 µg/mL
same,MIC,"A. baumannii [1]; Acinetobacter baumannii, ATCC19606, ATCC 19606, CAMHB, MCPs read at 80% inhibition",0.12 µg/mL
same,MIC,"A. baumannii [1]; Acinetobacter baumannii, ATCCBAA747, ATCC BAA-747, CAMHB, MCPs read at 80% inhibition",≤ 0.06 µg/mL
same,MIC,"A. baumannii [1]; Acinetobacter baumannii, ROB08701, CAMHB, MCPs read at 80% inhibition",0.25 µg/mL
same,MIC,"A. baumannii [1]; Acinetobacter baumannii, ROB08702, CAMHB, MCPs read at 80% inhibition",0.12 µg/mL
same,MIC,"A. baumannii [1]; Acinetobacter baumannii, ROB08703, CAMHB, MCPs read at 80% inhibition",0.5 µg/mL
same,MIC,"A. baumannii [1]; Acinetobacter baumannii, ROB08704, CAMHB, MCPs read at 80% inhibition",0.25 µg/mL
same,MIC,"A. baumannii [1]; Acinetobacter baumannii, ROB08705, CAMHB, MCPs read at 80% inhibition",0.25 µg/mL
same,MIC,"A. baumannii [1]; Acinetobacter baumannii, ROB08706, CAMHB, MCPs read at 80% inhibition",0.5 µg/mL
same,MIC,"A. baumannii [1]; Acinetobacter baumannii, ROB08707, CAMHB, MCPs read at 80% inhibition",≤ 0.06 µg/mL
same,MIC,"A. baumannii [1]; Acinetobacter baumannii, ROB08708, CAMHB, MCPs read at 80% inhibition",0.12 µg/mL
same,MIC,"A. baumannii [1]; Acinetobacter baumannii, ROB08709, CAMHB, MCPs read at 80% inhibition",≤ 0.06 µg/mL
same,MIC,"A. baumannii [1]; Acinetobacter baumannii, ROB08710, CAMHB, MCPs read at 80% inhibition",0.12 µg/mL
same,"Survival rate from sepsis, treated","A. baumannii [2]; ACC00445 parental, 2 x 30mg/kg s.c., vehicle 0",0/100%
same,"Survivors, individual mouse status","A. baumannii [2]; ACC00445 septicaemia, 0.3 mg/kg s.c. at 1 and 5 h, Day 1",1
same,"Survival rate from sepsis, treated","A. baumannii [2]; ACC00535 parental, 2 x 30mg/kg, vehicle 0",0/100%
same,"Survival rate from sepsis, treated","A. baumannii [2]; ROB08706 parental, 2 x 30mg/kg, vehicle 0",0/100%
same,"Survival rate from sepsis, treated","A. baumannii [2]; ROB08708 parental, 2 x 30mg/kg, vehicle 0",0/100%
same,"Survival rate from sepsis, treated","A. baumannii [2]; ROB08961 (LpxM NS), 2 x 30mg/kg, vehicle 100",100/100%
same,"Survival rate from sepsis, treated","A. baumannii [2]; ROB08979 (LptF R322L), 2 x 30mg/kg, vehicle 25",25/50%
same,"Survival rate from sepsis, treated","A. baumannii [2]; ROB08982 (lpxM ISAba1), 2 x 30mg/kg, vehicle 87.5",87.5/100%
same,"Survival rate from sepsis, treated","A. baumannii [2]; ROB08985 (LpxM NS), 2 x 30mg/kg, vehicle 100",100/100%
same,"Survival rate from sepsis, treated","A. baumannii [2]; ROB08997 (LptF I323K), 2 x 30mg/kg, vehicle 0",0/0%
same,"Survival rate from sepsis, treated","A. baumannii [2]; ROB08998 (AdeR A91V), 2 x 30mg/kg, vehicle 12.5",12.5/100%
same,"Survival rate from sepsis, treated","A. baumannii [2]; ROB09000 (lpxM ISAba1), 2 x 30mg/kg, vehicle 100",100/100%
same,"Survival rate from sepsis, treated","A. baumannii [2]; ROB21530 (LptF W271S), 2 x 30mg/kg, vehicle 25",25/37.5%
same,"Survival rate from sepsis, treated","A. baumannii [2]; ROB21531 (LptG G40D), 2 x 30mg/kg, vehicle 0",0/87.5%
same,"Survival rate from sepsis, treated","A. baumannii [2]; ROB21532 (LptF R322C), 2 x 30mg/kg, vehicle 50",50/50%
same,"Survival rate from sepsis, treated","A. baumannii [2]; ROB21533 (LptF I317L), 2 x 30mg/kg, vehicle 0",0/0%
same,"Survival rate from sepsis, treated","A. baumannii [2]; ROB23370 (adeS ISAba1), 2 x 30mg/kg, vehicle 0",0/75%
same,"Survival rate from sepsis, treated","A. baumannii [2]; ROB23371 (AdeS R152K), 2 x 30mg/kg, vehicle 0",0/100%
same,"Survival rate from sepsis, treated","A. baumannii [2]; ROB23373 (AdeS G318S), 2 x 30mg/kg, vehicle 0",0/100%
same,"Survival rate from sepsis, treated","A. baumannii [2]; ROB23377 (AdeS R108S), 2 x 30mg/kg, vehicle 0",0/100%
same,"Survival rate from sepsis, treated","A. baumannii [2]; ROB23380 (adeS ISAba1), 2 x 30mg/kg, vehicle 0",0/100%

# Reference: paper PMC10794144, “A novel antibiotic class targeting the lipopolysaccharide transporter” (Nature, 2024)
